These results are taken from patent US20060128695A1, “Cyclic nucleotide phosphodiesterase inhibitors, preparation and uses” (NEURO3D, priority 2002, published 2006).

One assay deals with T1, PDE2 (Bos taurus, UniProt P14099).
T1 construct: PDE2 was prepared from bovine endothelial cells by the same methods; endogenous in cells; host or cells: bovine endothelial cells
T1 sequence (P14099 1-921): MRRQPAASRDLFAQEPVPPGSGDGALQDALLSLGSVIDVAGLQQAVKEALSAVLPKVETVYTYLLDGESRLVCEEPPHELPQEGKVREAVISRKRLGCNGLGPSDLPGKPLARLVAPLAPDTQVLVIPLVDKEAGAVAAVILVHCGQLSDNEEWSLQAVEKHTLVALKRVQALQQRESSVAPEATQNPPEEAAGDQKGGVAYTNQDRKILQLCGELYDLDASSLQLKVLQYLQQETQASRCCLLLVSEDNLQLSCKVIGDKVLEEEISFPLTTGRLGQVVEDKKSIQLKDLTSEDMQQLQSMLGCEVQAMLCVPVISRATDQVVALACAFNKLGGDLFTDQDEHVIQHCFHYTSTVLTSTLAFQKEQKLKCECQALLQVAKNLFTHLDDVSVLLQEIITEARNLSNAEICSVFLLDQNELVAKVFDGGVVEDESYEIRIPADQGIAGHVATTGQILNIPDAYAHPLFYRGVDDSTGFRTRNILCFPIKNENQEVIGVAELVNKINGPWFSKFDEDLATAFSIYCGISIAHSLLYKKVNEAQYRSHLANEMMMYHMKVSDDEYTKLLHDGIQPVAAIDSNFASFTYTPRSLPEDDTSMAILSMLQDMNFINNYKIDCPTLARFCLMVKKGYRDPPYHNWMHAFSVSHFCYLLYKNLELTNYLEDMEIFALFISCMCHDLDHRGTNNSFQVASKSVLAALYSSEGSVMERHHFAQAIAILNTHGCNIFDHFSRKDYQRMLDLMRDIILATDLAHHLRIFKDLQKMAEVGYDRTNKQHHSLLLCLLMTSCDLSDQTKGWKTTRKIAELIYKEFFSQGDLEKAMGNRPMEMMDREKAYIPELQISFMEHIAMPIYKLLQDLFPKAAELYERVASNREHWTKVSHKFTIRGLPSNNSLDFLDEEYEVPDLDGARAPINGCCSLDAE
In words: Inhibition of PDE2, radioenzymatic phosphodiesterase assay. In kind it is biochemical, bovine.

For a further assay, the target named is T2, PDE3 (Bos taurus, UniProt A0A3Q1M1E8).
T2 sequence (A0A3Q1M1E8 1-1126): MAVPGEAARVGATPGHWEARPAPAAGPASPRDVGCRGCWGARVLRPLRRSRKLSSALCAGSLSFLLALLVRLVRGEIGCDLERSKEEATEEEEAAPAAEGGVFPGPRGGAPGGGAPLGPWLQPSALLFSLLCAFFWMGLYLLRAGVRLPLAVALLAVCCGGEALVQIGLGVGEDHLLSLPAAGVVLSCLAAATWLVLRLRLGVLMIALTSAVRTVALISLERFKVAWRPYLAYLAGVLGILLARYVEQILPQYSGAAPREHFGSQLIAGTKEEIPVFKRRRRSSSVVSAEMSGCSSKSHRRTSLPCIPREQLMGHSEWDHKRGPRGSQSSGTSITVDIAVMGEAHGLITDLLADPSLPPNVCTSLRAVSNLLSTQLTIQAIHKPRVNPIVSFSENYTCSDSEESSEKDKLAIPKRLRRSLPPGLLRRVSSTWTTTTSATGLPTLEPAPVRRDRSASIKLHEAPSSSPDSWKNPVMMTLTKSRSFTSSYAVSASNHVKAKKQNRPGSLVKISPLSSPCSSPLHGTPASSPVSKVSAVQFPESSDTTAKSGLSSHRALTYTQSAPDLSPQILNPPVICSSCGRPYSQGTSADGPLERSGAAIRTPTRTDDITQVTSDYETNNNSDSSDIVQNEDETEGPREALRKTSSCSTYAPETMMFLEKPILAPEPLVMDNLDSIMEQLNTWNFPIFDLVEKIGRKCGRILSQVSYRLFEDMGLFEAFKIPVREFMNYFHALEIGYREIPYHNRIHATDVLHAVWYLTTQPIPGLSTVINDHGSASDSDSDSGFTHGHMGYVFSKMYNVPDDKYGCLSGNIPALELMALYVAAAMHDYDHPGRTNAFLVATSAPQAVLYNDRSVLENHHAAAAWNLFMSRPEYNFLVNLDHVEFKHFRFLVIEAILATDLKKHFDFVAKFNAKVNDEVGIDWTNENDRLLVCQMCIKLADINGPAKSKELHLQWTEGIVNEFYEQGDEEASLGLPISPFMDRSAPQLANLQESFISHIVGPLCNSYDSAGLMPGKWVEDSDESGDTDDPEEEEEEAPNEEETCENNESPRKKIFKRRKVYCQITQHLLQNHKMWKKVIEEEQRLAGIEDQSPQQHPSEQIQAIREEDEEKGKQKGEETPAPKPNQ
Kind of assay: Selectivity: inhibition of PDE3, radioenzymatic phosphodiesterase assay. In kind it is biochemical, bovine. The conditions noted are these: 10 μM test compound; vascular smooth muscle; read-out: PDE3 percentage inhibition at 10 μM. The procedure: A 3 g segment of bovine aortic media cut into pieces with scissors was homogenized with an ultra-turrax then a potter glass/glass homogenizer in 7 volumes by weight of buffer A containing a protease inhibitor cocktail (20 mM Tris-HCl, 0.25 M saccharose, 2 mM magnesium acetate, 1 mM dithiothreitol, 5 mM EGTA, 2000 U/ml aprotinin, 10 mg/l leupeptin and 10 mg/l soya trypsic inhibitor). The homogenizate was centrifuged at 105,000 g for 1 hour. The supernatant was loaded on a DEAE-Sephacel column (15 x 1.6 cm) pre-equilibrated with buffer B (buffer A without the saccharose, EGTA and protease inhibitors). The column was washed until there was no detectable absorption at 280 nm, then eluted with a linear gradient of NaCl (0-0.5 M) in buffer B. 3-ml fractions were collected and enzyme activity was determined under the conditions described hereinbelow to localize the different enzymes PDE1, PDE3, PDE4 and PDE5 which were aliquoted and frozen at −80° C. (Lugnier et al., Biochem. Phamacol., 1986, 35: 1746-1751). PDE2 was prepared from bovine endothelial cells by the same methods (Lugnier and Schini, Biochem. Pharmacol., 1990, 39: 75-84).
Cyclic nucleotide phosphodiesterase activity was determined by a radioenzymatic method using tritium-labelled cyclic GMP or AMP (1 μM) as substrate (Lugnier et al., 1986). ^3H-labelled adenosine or guanosine monophosphate formed by hydrolysis of the radiolabelled cyclic nucleotide was then converted to ^3H-labelled adenosine or guanosine in a second reaction with […] in excess. The nucleoside formed was separated from the nucleotides by anion exchange chromatography. Nucleoside radioactivity was determined by liquid scintillation counting. […]
The activity of the compounds was evaluated on other phosphodiesterase isoforms, particularly basal state or calmodulin-activated PDEl from vascular smooth muscle, PDE3, PDE4 and PDE5 from vascular smooth muscle.
The results obtained are presented in Tables 1 and 2 hereinbelow and are expressed as the percentage inhibition of enzymatic activity produced by […] of the test compound.

As usually defined, the IC50 is the concentration needed to halve the response being measured. Read a high IC50 as a need for much substance. By inhibition is commonly meant how much of the control response was suppressed. For the molecule `COc1cc2c(cc1OC)N(C)C(=O)CN=C2c1cccc(C(N)=O)c1` [Compound 5a, 3-(7,8-dimethoxy-1-methyl-2-oxo-2,3-dihydro-1H-1,4-benzodiazepin-5-yl)-benzamide], the half-maximal inhibitory concentration (IC50) on PDE2 was 1500 nM. The inhibition at 10 µM at PDE3 was 5%.
